Source: article PMC6277767, “Broad and Region-Specific Impacts of the Synthetic Cannabinoid CP 55,940 in Adolescent and Adult Female Mouse Brains” (Frontiers in Molecular Neuroscience, 2018)

System: CD1 female mouse brain lipidome
Assay: Brain-region lipid levels (HPLC/MS/MS lipidomics) 2 h after single i.p. 3 mg/kg CP 55,940 vs vehicle
Assay type: in vivo
Design: N-arachidonoyl phenylalanine level, Mean / N-stearoyl tryptophan level, Mean / N-stearoyl proline level, Mean / N-stearoyl leucine level, Mean / N-stearoyl phenylalanine level, Mean / N-stearoyl serine level, Mean / N-stearoyl methionine level, Mean: unit: moles per gram
Settings: striatum
Experimental: The Bloomington Institutional Animal Care and Use Committee of Indiana University reviewed and approved the animal procedures. Female mice from the CD1 strain were utilized to match our study examining THC’s effects on the brain lipidome ([Leishman et al., 2018]). Mice were given a single i.p. injection of either 3 mg/kg CP or 1:1:18 cremophor:ethanol:saline vehicle (please refer to the section “3 mg/kg CP Is Relevant for Synthetic Cannabinoid Abuse and Has Stronger Effects on the Female Mouse Brain Lipidome During Adolescence” for a justification of dose and use of female mice). Three different age groups were given injections: PND 35 and PND 50 adolescents, and adult mice (PND 113). At least eight mice in each age group received CP and at least eight received vehicle. Matching the THC study time course ([Leishman et al., 2018]), mice were sacrificed via rapid decapitation 2 h after injection. Brains were immediately removed and flash-frozen in liquid nitrogen, and then stored at -80°C until dissections were performed. Brains were dissected on an ice-cold dissection plate into the following regions: STR, HIPP, CER, THAL, CTX, HYP, MID, and STEM. These abbreviations for these brain areas will be used exclusively when discussing the results generated by these specific dissections. Each dissected area was immediately placed in liquid nitrogen and then stored at -80°C until used for lipid extraction.
Tissue extracts were performed as previously described ([Bradshaw et al., 2006]; [Stuart et al., 2013]; [Raboune et al., 2014]; [Leishman et al., 2016a],[b], [2017], [2018]). First, samples were shock frozen in liquid nitrogen, weighed, and transferred to a centrifuge tube. The mass of the largest sample was multiplied by 50 to determine how many milliliters of HPLC-grade methanol (Fisher, Fair Lawn, NJ, United States) to add. Then, samples were spiked with 500 pmol deuterium-labeled NAGly (d8NAGly; Cayman Chemical, Ann Arbor, MI, United States). Samples were placed on ice in darkness for 2 h then individually homogenized and centrifuged at 19,000 × g for 20 min at 20°C. Supernatants were diluted with HPLC water (purified in house) to make a solution of 75% water, 25% supernatant. Lipids were partially purified on C18 solid phase extraction columns (Agilent, Palo Alto, CA, United States). A series of four elutions with 1.5 mL of 60%, 75%, 85%, and 100% methanol were collected ([Stuart et al., 2013]; [Leishman et al., 2016a],[b], [2018]).
As previously described ([Bradshaw et al., 2006]; [Tan et al., 2006]; [Smoum et al., 2010]; [Stuart et al., 2013]; [Tortoriello et al., 2013]; [Raboune et al., 2014]; [Leishman et al., 2016a],[b], [2017], [2018]), samples were analyzed using an Applied Biosystems API 3000 triple quadrupole mass spectrometer with electrospray ionization (Foster City, CA, United States). Using an Agilent XDB-C18 reversed phase analytical column and optimized mobile phase gradients, 20 μL from each elution were chromatographed. Two Shimadzu 10ADvp pumps (Columbia, MD, United States) provided the pressure for gradient elution. Mobile phase A: 20% methanol, 80% water (v/v) and 1 mM ammonium acetate (Sigma, St. Louis, MO, United States). Mobile phase B: 100% methanol, 1 mM ammonium acetate. Every method run began with 0% mobile phase B, reached 100% mobile phase B flowing at 0.2 mL/min, and gradually returned to 0% mobile phase B.
This screening library will be referred to as the lipidome when discussing data from this study. HPLC/MS/MS data were analyzed using Analyst software (Applied Biosystems) ([Bradshaw et al., 2006]; [Tan et al., 2006]; [Stuart et al., 2013]; [Tortoriello et al., 2013]; [Raboune et al., 2014]; [Leishman et al., 2016a],[b], [2017], [2018]). Chromatograms (Supplementary Figure 3) were generated by determining the retention time of analytes from the analytical column with a [M-1] or [M+1] parent peak and a fragmentation peak corresponding to the programmed values. […]

[1] = PND 50 female mice, 3mg/kg CP 55,940, mean

CCCCCCC(C)(C)c1ccc([C@@H]2C[C@H](O)CC[C@H]2CCCO)c(O)c1 [CP 55,940]
N-palmitoyl valine level [1]: 1.79E-13
N-stearoyl GABA level [1]: 3.86E-12
N-stearoyl alanine level [1]: 6.45E-13
N-stearoyl ethanolamine level [1]: 2.79E-11
N-stearoyl glycine level [1]: 4.91E-13
N-stearoyl leucine level [1]: 1.1E-12
N-stearoyl methionine level [1]: 8.01E-13
N-stearoyl phenylalanine level [1]: 1.27E-12
N-stearoyl proline level [1]: BDL
N-stearoyl serine level [1]: 5.13E-11
N-stearoyl tryptophan level [1]: BDL
N-stearoyl tyrosine level [1]: 9.9E-14
Oleic acid level [1]: 2.17E-10
PGE2 level [1]: 7.65E-11
PGF2α level [1]: 9.33E-11
THC level [1]: BDL
2-arachidonoyl-sn-glycerol level, Mean (adult, 3 mg/kg CP 55,940): 1.6E-09
2-linoleoyl-sn-glycerol level, Mean (adult, 3 mg/kg CP 55,940): 1.72E-10
2-oleoyl-sn-glycerol level, Mean (adult, 3 mg/kg CP 55,940): 1.58E-09
2-palmitoyl-sn-glycerol level, Mean (adult, 3 mg/kg CP 55,940): 1.51E-10
6-ketoPGF1α level, Mean (adult, 3 mg/kg CP 55,940): PISSR
11-OH-THC level, Mean (adult, 3 mg/kg CP 55,940): BDL
11-nor-9-carboxyTHC level, Mean (adult, 3 mg/kg CP 55,940): BDL
Arachidonic acid level, Mean (adult, 3 mg/kg CP 55,940): 1.93E-09
Cannabidiol level, Mean (adult, 3 mg/kg CP 55,940): BDL
Linoleic acid level, Mean (adult, 3 mg/kg CP 55,940): 7.69E-10
N- stearoyl valine level, Mean (adult, 3 mg/kg CP 55,940): PISSR
N-arachidonoyl GABA level, Mean (adult, 3 mg/kg CP 55,940): 2.43E-11
N-arachidonoyl alanine level, Mean (adult, 3 mg/kg CP 55,940): 2.03E-12
N-arachidonoyl dopamine level, Mean (adult, 3 mg/kg CP 55,940): BDL
N-arachidonoyl ethanolamine level, Mean (adult, 3 mg/kg CP 55,940): 2.19E-11
N-arachidonoyl glycine level, Mean (adult, 3 mg/kg CP 55,940): 6.38E-13
N-arachidonoyl methionine level, Mean (adult, 3 mg/kg CP 55,940): BDL
N-arachidonoyl phenylalanine level, Mean (adult, 3 mg/kg CP 55,940): 9.64E-14
N-arachidonoyl proline level, Mean (adult, 3 mg/kg CP 55,940): BDL
N-arachidonoyl serine level, Mean (adult, 3 mg/kg CP 55,940): PISSR
N-arachidonoyl taurine level, Mean (adult, 3 mg/kg CP 55,940): 9.74E-11
N-arachidonoyl tryptophan level, Mean (adult, 3 mg/kg CP 55,940): BDL
N-arachidonoyl tyrosine level, Mean (adult, 3 mg/kg CP 55,940): PISSR
N-docosahexaenoyl GABA level, Mean (adult, 3 mg/kg CP 55,940): PISSR
N-docosahexaenoyl alanine level, Mean (adult, 3 mg/kg CP 55,940): BDL
N-docosahexaenoyl ethanolamine level, Mean (adult, 3 mg/kg CP 55,940): 2.36E-11
N-docosahexaenoyl glycine level, Mean (adult, 3 mg/kg CP 55,940): PISSR
N-docosahexaenoyl leucine level, Mean (adult, 3 mg/kg CP 55,940): PISSR
N-docosahexaenoyl methionine level, Mean (adult, 3 mg/kg CP 55,940): BDL
N-docosahexaenoyl phenylalanine level, Mean (adult, 3 mg/kg CP 55,940): PISSR
N-docosahexaenoyl proline level, Mean (adult, 3 mg/kg CP 55,940): BDL
N-docosahexaenoyl serine level, Mean (adult, 3 mg/kg CP 55,940): PISSR
N-docosahexaenoyl tryptophan level, Mean (adult, 3 mg/kg CP 55,940): BDL
N-docosahexaenoyl tyrosine level, Mean (adult, 3 mg/kg CP 55,940): PISSR
N-docosahexaenoyl valine level, Mean (adult, 3 mg/kg CP 55,940): BDL
N-linoleoyl GABA level, Mean (adult, 3 mg/kg CP 55,940): PISSR
N-linoleoyl alanine level, Mean (adult, 3 mg/kg CP 55,940): PISSR
N-linoleoyl ethanolamine level, Mean (adult, 3 mg/kg CP 55,940): 3.83E-11
N-linoleoyl glycine level, Mean (adult, 3 mg/kg CP 55,940): PISSR
N-linoleoyl leucine level, Mean (adult, 3 mg/kg CP 55,940): PISSR
N-linoleoyl methionine level, Mean (adult, 3 mg/kg CP 55,940): BDL
N-linoleoyl phenylalanine level, Mean (adult, 3 mg/kg CP 55,940): PISSR
N-linoleoyl proline level, Mean (adult, 3 mg/kg CP 55,940): BDL
N-linoleoyl serine level, Mean (adult, 3 mg/kg CP 55,940): 1.09E-10
N-linoleoyl tryptophan level, Mean (adult, 3 mg/kg CP 55,940): BDL
N-linoleoyl tyrosine level, Mean (adult, 3 mg/kg CP 55,940): BDL
N-linoleoyl valine level, Mean (adult, 3 mg/kg CP 55,940): PISSR
N-nervonoyl valine level, Mean (adult, 3 mg/kg CP 55,940): BDL
N-oleoyl GABA level, Mean (adult, 3 mg/kg CP 55,940): 1.7E-11
N-oleoyl alanine level, Mean (adult, 3 mg/kg CP 55,940): 3.96E-12
N-oleoyl dopamine level, Mean (adult, 3 mg/kg CP 55,940): BDL
N-oleoyl ethanolamine level, Mean (adult, 3 mg/kg CP 55,940): 1.57E-10
N-oleoyl glycine level, Mean (adult, 3 mg/kg CP 55,940): 5.26E-13
N-oleoyl leucine level, Mean (adult, 3 mg/kg CP 55,940): 1.99E-12
N-oleoyl methionine level, Mean (adult, 3 mg/kg CP 55,940): PISSR
N-oleoyl phenylalanine level, Mean (adult, 3 mg/kg CP 55,940): 4.84E-13
N-oleoyl proline level, Mean (adult, 3 mg/kg CP 55,940): BDL
N-oleoyl serine level, Mean (adult, 3 mg/kg CP 55,940): 5.05E-10
N-oleoyl tryptophan level, Mean (adult, 3 mg/kg CP 55,940): BDL
N-oleoyl tyrosine level, Mean (adult, 3 mg/kg CP 55,940): PISSR
N-oleoyl valine level, Mean (adult, 3 mg/kg CP 55,940): PISSR
N-palmitoyl GABA level, Mean (adult, 3 mg/kg CP 55,940): 2.94E-11
N-palmitoyl alanine level, Mean (adult, 3 mg/kg CP 55,940): 3.83E-12
N-palmitoyl ethanolamine level, Mean (adult, 3 mg/kg CP 55,940): 7.87E-11
N-palmitoyl glycine level, Mean (adult, 3 mg/kg CP 55,940): 2.5E-12
N-palmitoyl leucine level, Mean (adult, 3 mg/kg CP 55,940): 3E-12
N-palmitoyl methionine level, Mean (adult, 3 mg/kg CP 55,940): PISSR
N-palmitoyl phenylalanine level, Mean (adult, 3 mg/kg CP 55,940): 3.31E-13
N-palmitoyl proline level, Mean (adult, 3 mg/kg CP 55,940): PISSR
N-palmitoyl serine level, Mean (adult, 3 mg/kg CP 55,940): 4.99E-11
N-palmitoyl tryptophan level, Mean (adult, 3 mg/kg CP 55,940): BDL
N-palmitoyl tyrosine level, Mean (adult, 3 mg/kg CP 55,940): 2.47E-12
N-palmitoyl valine level, Mean (adult, 3 mg/kg CP 55,940): PISSR
N-stearoyl GABA level, Mean (adult, 3 mg/kg CP 55,940): 2.26E-11
N-stearoyl alanine level, Mean (adult, 3 mg/kg CP 55,940): 4.15E-12
N-stearoyl ethanolamine level, Mean (adult, 3 mg/kg CP 55,940): 3.49E-11
N-stearoyl glycine level, Mean (adult, 3 mg/kg CP 55,940): 3.37E-12
N-stearoyl leucine level, Mean (adult, 3 mg/kg CP 55,940): 3.52E-12
N-stearoyl phenylalanine level, Mean (adult, 3 mg/kg CP 55,940): 4.25E-13
N-stearoyl proline level, Mean (adult, 3 mg/kg CP 55,940): BDL
N-stearoyl serine level, Mean (adult, 3 mg/kg CP 55,940): PISSR
N-stearoyl tryptophan level, Mean (adult, 3 mg/kg CP 55,940): BDL
Oleic acid level, Mean (adult, 3 mg/kg CP 55,940): 1.22E-09
PGE2 level, Mean (adult, 3 mg/kg CP 55,940): 2.64E-10
PhosphoLEA level, Mean (adult, 3 mg/kg CP 55,940): 2.11E-11
THC level, Mean (adult, 3 mg/kg CP 55,940): BDL
